# Legend:
# Serine protease 1 [1] = target: T1, Serine protease 1 (Bos taurus, UniProt P00760); assay: Inhibitory activity against bovine trypsin
# T1 sequence (P00760 whole entry): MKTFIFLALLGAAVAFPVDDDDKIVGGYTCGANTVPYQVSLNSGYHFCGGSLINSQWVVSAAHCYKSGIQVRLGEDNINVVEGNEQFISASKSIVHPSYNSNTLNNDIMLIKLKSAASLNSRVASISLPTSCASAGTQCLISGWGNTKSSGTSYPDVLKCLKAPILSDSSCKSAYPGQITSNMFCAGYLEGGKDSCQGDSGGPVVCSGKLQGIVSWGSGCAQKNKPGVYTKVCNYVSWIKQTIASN
# Tryptase = Tryptase (Homo sapiens, UniProt Q9BZJ3+Q15661+Q9NRR2); assay: Inhibitory activity against human tryptase
# [2] = target: Tissue-type plasminogen activator (Homo sapiens, UniProt P00750); assay: Inhibitory activity against tissue type plasminogen activator
# Plasminogen = Plasminogen (Rattus norvegicus, UniProt Q01177); assay: Inhibitory activity against plasmin
# Serine protease 1 [3] = target: Serine protease 1 (Homo sapiens, UniProt P07477); assay: Inhibitory activity against trypsin
# Coagulation factor X = Coagulation factor X (Homo sapiens, UniProt P00742); assay: Inhibitory activity against Coagulation factor X
# Prothrombin = Prothrombin (Homo sapiens, UniProt P00734); assay: Inhibitory activity against thrombin
# [4] = target: Urokinase-type plasminogen activator (Homo sapiens, UniProt P00749); assay: Inhibitory activity against Urokinase-type plasminogen activator
# [5] = target: T2, Serine protease 1 (Bos taurus) (UniProt P00760); assay: Inhibition of bovine trypsin at 0.2 uM
# T2 sequence (whole entry): T1 sequence (P00760 whole entry)
# Sequence of Serine protease 1 (Homo sapiens, UniProt P07477) (P07477 whole entry): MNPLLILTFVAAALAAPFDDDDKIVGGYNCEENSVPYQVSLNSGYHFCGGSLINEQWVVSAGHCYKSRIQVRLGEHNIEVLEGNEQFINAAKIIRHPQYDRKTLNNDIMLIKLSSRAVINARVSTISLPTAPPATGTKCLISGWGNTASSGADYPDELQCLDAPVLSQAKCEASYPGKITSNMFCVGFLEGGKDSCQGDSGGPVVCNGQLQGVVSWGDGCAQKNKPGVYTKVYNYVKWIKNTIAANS
# Sequence of Plasminogen (Q01177 97-581 limits assumed): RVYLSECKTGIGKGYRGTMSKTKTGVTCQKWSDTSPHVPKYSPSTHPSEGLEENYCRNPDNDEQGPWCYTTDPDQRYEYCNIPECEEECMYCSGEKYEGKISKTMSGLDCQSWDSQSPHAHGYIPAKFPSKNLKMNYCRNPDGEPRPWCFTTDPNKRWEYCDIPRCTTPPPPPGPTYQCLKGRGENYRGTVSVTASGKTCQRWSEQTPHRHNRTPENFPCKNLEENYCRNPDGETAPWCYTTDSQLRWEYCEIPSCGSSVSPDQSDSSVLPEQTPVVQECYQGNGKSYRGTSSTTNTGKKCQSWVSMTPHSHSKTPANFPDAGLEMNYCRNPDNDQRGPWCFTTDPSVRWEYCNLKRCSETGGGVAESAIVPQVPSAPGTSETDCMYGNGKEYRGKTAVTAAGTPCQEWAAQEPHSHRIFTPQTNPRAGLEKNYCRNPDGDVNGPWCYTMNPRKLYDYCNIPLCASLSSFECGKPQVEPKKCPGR
# Sequence of Plasminogen (Q01177 582-812 limits assumed): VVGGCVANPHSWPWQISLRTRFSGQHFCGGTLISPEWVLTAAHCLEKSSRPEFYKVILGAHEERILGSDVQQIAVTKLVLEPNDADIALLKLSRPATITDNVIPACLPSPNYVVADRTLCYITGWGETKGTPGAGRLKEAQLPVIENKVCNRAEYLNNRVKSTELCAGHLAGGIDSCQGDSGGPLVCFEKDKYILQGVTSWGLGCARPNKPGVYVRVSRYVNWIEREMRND
# Sequence of Tissue-type plasminogen activator (P00750 whole entry): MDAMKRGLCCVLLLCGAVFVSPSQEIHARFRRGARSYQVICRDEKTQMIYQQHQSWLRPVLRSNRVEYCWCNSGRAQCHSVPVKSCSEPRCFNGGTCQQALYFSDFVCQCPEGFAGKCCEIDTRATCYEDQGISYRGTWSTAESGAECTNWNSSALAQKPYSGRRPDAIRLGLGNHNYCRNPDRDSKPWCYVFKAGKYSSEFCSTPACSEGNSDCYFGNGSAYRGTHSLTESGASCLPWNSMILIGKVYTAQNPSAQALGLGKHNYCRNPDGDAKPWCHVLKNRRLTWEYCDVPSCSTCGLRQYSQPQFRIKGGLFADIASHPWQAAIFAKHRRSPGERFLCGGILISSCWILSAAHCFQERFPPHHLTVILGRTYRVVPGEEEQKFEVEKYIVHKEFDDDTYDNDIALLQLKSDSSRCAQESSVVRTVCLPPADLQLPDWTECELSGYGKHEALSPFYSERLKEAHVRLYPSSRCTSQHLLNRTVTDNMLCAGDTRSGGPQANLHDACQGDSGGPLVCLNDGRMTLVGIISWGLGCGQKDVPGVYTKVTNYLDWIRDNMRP
# Sequence of Coagulation factor X (P00742 41-179 limits assumed): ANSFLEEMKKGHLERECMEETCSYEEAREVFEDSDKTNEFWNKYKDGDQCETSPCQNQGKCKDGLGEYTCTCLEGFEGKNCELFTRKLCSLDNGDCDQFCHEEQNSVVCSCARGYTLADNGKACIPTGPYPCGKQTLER
# Sequence of Coagulation factor X (P00742 235-488 limits assumed): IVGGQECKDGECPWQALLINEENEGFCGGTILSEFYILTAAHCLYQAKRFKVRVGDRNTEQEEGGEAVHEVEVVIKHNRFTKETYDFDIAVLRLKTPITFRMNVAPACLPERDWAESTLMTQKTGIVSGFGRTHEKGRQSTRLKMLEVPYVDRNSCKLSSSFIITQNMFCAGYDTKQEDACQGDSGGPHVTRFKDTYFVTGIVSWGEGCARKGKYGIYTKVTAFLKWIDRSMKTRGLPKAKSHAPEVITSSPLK
SMILES,IC50 (Serine protease 1 [1]) [nM],IC50 (Tryptase) [µM],inhibition [5] [%],further results
N=C(N)N1CCC[C@H](C[C@H]2C(=O)N(C(=O)N3CCN(C(=O)CCCCCc4ccccc4)CC3)[C@@H]2C(=O)O)C1,5760,0.0017,,
CC(C)(C)NC(=O)N1CCN(C(=O)N2C(=O)[C@H](CC3CCNCC3)[C@H]2C(=O)O)CC1,1900,0.03,,IC50 [2]: > 1.1 µM; IC50 (Plasminogen): 250 nM; IC50 (Serine protease 1 [3]): 62 nM; IC50 (Coagulation factor X): > 1100 nM; IC50 (Prothrombin): > 1100 nM; IC50 [4]: 34 nM
"CC(=O)Nc1ccsc1C(=O)N1CCN(C(=O)N2C(=O)[C@H](CC3CCNCC3)C2C(=O)O)CC1 (single isomer, unassigned)",,0.19,68,
"O=C(O)C1[C@@H](CC2CCNCC2)C(=O)N1C(=O)N1CCN(C(=O)Cc2ccc(Oc3ccccc3)cc2)CC1 (single isomer, unassigned)",950,0.005,,
"O=C(O)C1[C@@H](CC2CCNCC2)C(=O)N1C(=O)N1CCN(C(=O)Cc2ccc3c(c2)CCCC3)CC1 (single isomer, unassigned)",,0.03,18,
"O=C(O)C1[C@@H](CC2CCNCC2)C(=O)N1C(=O)N1CCN(C(=O)CCCCCc2ccc3ccccc3c2)CC1 (single isomer, unassigned)",320,0.001,,
"COc1cccc(CCC(=O)N2CCN(C(=O)N3C(=O)[C@H](CC4CCNCC4)C3C(=O)O)CC2)c1 (single isomer, unassigned)",810,0.014,,
"O=C(O)C1[C@@H](CC2CCNCC2)C(=O)N1C(=O)N1CCN(C(=O)Cc2cccc(Oc3ccccc3)c2)CC1 (single isomer, unassigned)",970,0.017,,
"O=C(O)C1[C@@H](CC2CCNCC2)C(=O)N1C(=O)N1CCN(C(=O)CCCCc2ccccc2)CC1 (single isomer, unassigned)",810,0.006,,
"O=C(O)C1[C@@H](CC2CCNCC2)C(=O)N1C(=O)N1CCN(C(=O)c2ccccc2-c2ccccc2)CC1 (single isomer, unassigned)",,0.042,46,
"O=C(O)C1[C@@H](CC2CCNCC2)C(=O)N1C(=O)N1CCN(C(=O)c2cc3ccccc3o2)CC1 (single isomer, unassigned)",,0.021,89,
"Cc1onc(-c2ccccc2)c1C(=O)N1CCN(C(=O)N2C(=O)[C@H](CC3CCNCC3)C2C(=O)O)CC1 (single isomer, unassigned)",,0.29,31,
"O=C(O)C1[C@@H](CC2CCNCC2)C(=O)N1C(=O)N1CCN(C(=O)c2ccccc2CCc2ccccc2)CC1 (single isomer, unassigned)",,0.14,60,
"O=C(O)C1[C@@H](CC2CCNCC2)C(=O)N1C(=O)N1CCN(C(=O)CCCCCCc2ccccc2)CC1 (single isomer, unassigned)",1300,0.005,,
"CC1=NN(c2ccc(C(=O)N3CCN(C(=O)N4C(=O)[C@H](CC5CCNCC5)C4C(=O)O)CC3)cc2)C(=O)C1 (single isomer, unassigned)",,0.38,91,
"O=C(O)C1[C@@H](CC2CCNCC2)C(=O)N1C(=O)N1CCN(C(=O)CCCC2CCCCC2)CC1 (single isomer, unassigned)",,0.024,40,
"O=C(O)C1[C@@H](CC2CCNCC2)C(=O)N1C(=O)N1CCN(C(=O)c2cccc(Oc3ccccc3)c2)CC1 (single isomer, unassigned)",,0.015,78,
"Cc1cccc(CCC(=O)N2CCN(C(=O)N3C(=O)[C@H](CC4CCNCC4)C3C(=O)O)CC2)c1 (single isomer, unassigned)",1200,0.013,,
"O=C(O)C1[C@@H](CC2CCNCC2)C(=O)N1C(=O)N1CCN(C(=O)c2ccc(Oc3ccccc3)cc2)CC1 (single isomer, unassigned)",140,0.007,,
"O=C(O)C1[C@@H](CC2CCNCC2)C(=O)N1C(=O)N1CCN(C(=O)Cc2ccc(OCc3ccccc3)cc2)CC1 (single isomer, unassigned)",440,0.001,,IC50 [2]: > 33 µM; IC50 (Plasminogen): 380 nM; IC50 (Serine protease 1 [3]): 440 nM; IC50 [4]: 1210 nM
"O=C(NCCCC(=O)N1CCN(C(=O)N2C(=O)[C@H](CC3CCNCC3)C2C(=O)O)CC1)OCc1ccccc1 (single isomer, unassigned)",1200,0.006,,
"O=C(O)C1[C@@H](CC2CCNCC2)C(=O)N1C(=O)N1CCN(C(=O)CCCCCc2ccccc2)CC1 (single isomer, unassigned)",310,,,IC50 [2]: > 33 µM; IC50 (Plasminogen): 170 nM; IC50 (Serine protease 1 [3]): 310 nM; IC50 [4]: 970 nM
"Cc1ccc(C2=CN=C(CCC(=O)N3CCN(C(=O)N4C(=O)[C@H](CC5CCNCC5)C4C(=O)O)CC3)C2=O)cc1 (single isomer, unassigned)",1800,0.005,,

SMILES,IC50 (Serine protease 1 [1]) [nM],IC50 (Tryptase) [µM],inhibition [5] [%],further results
"O=C(O)C1[C@@H](CC2CCNCC2)C(=O)N1C(=O)N1CCN(C(=O)CCCCCCCc2ccccc2)CC1 (single isomer, unassigned)",1300,0.005,,
"O=C(CCC(=O)N1CCN(C(=O)N2C(=O)[C@H](CC3CCNCC3)C2C(=O)O)CC1)NCCc1ccccc1 (single isomer, unassigned)",1900,0.017,,
"O=C1CC[C@@H](C(=O)N2CCN(C(=O)N3C(=O)[C@H](CC4CCNCC4)C3C(=O)O)CC2)N1 (single isomer, unassigned)",,0.17,69,
"O=C(O)C1[C@@H](CC2CCNCC2)C(=O)N1C(=O)N1CCN(C(=O)c2ccc(CCCc3ccccc3)cc2)CC1 (single isomer, unassigned)",310,0.006,,
"O=C(O)C1[C@@H](CC2CCNCC2)C(=O)N1C(=O)N1CCN(C(=O)CCCc2ccc3ccccc3c2)CC1 (single isomer, unassigned)",600,0.01,,
"O=C(O)C1[C@@H](CC2CCNCC2)C(=O)N1C(=O)N1CCN(C(=O)CCCc2nc(-c3ccc(Cl)cc3)no2)CC1 (single isomer, unassigned)",150,0.005,,
"O=C(O)C1[C@@H](CC2CCNCC2)C(=O)N1C(=O)N1CCN(C(=O)c2ccc(OCc3ccccc3)cc2)CC1 (single isomer, unassigned)",120,0.004,,
"O=C(CCCC(=O)N1CCN(C(=O)N2C(=O)[C@H](CC3CCNCC3)C2C(=O)O)CC1)Nc1ccccc1 (single isomer, unassigned)",1350,0.012,,
"CC(C)(C)NC(=O)N1CCN(C(=O)N2C(=O)[C@H](CCCN=C(N)N)C2C(=O)O)CC1 (single isomer, unassigned)",72,,,IC50 [2]: > 8.25 µM; IC50 (Plasminogen): 430 nM; IC50 (Serine protease 1 [3]): 4.5 nM
"O=C(O)C1[C@@H](CC2CCNCC2)C(=O)N1C(=O)N1CCN(C(=O)Cc2ccc(-c3ccccc3)cc2)CC1 (single isomer, unassigned)",740,0.005,,
"O=C(O)C1[C@@H](CC2CCNCC2)C(=O)N1C(=O)N1CCN(C(=O)c2cc3cc(F)ccc3[nH]2)CC1 (single isomer, unassigned)",,0.45,63,
"O=C(O)C1[C@@H](CC2CCNCC2)C(=O)N1C(=O)N1CCN(C(=O)c2ccccc2Oc2ccccc2)CC1 (single isomer, unassigned)",,0.12,2,
"O=C(O)C1[C@@H](CC2CCNCC2)C(=O)N1C(=O)N1CCN(C(=O)c2ccc3ccccc3n2)CC1 (single isomer, unassigned)",,0.11,51,
"O=C(O)C1[C@@H](CC2CCNCC2)C(=O)N1C(=O)N1CCN(C(=O)Cc2ccc3ccccc3c2)CC1 (single isomer, unassigned)",,0.07,22,
"O=C(O)C1[C@@H](CC2CCNCC2)C(=O)N1C(=O)N1CCN(C(=O)Cc2ccc(CCCc3ccccc3)cc2)CC1 (single isomer, unassigned)",1580,0.009,,
"O=C(O)C1[C@@H](CC2CCNCC2)C(=O)N1C(=O)N1CCN(C(=O)CCCCCc2cccc3ccccc23)CC1 (single isomer, unassigned)",240,0.001,,
"CCCCCCc1ccc(-c2ccc(C(=O)N3CCN(C(=O)N4C(=O)[C@H](CC5CCNCC5)C4C(=O)O)CC3)cc2)cc1 (single isomer, unassigned)",1200,0.12,,
"O=C(O)C1[C@@H](CC2CCNCC2)C(=O)N1C(=O)N1CCN(C(=O)CCCCCCc2cccc3ccccc23)CC1 (single isomer, unassigned)",320,0.001,,
"O=C(O)C1[C@@H](CC2CCNCC2)C(=O)N1C(=O)N1CCN(C(=O)c2ccc(-c3ccccc3)cc2)CC1 (single isomer, unassigned)",120,0.006,,
"O=C(O)C1[C@@H](CC2CCNCC2)C(=O)N1C(=O)N1CCN(C(=O)c2ccc(C3CCCCC3)cc2)CC1 (single isomer, unassigned)",,0.04,76,
"O=C(O)C1[C@@H](CC2CCNCC2)C(=O)N1C(=O)N1CCN(C(=O)Cc2ccc3c(c2)OCO3)CC1 (single isomer, unassigned)",,0.055,19,
"O=C(O)C1[C@@H](CC2CCNCC2)C(=O)N1C(=O)N1CCN(C(=O)c2ccc3ccccc3c2)CC1 (single isomer, unassigned)",,,72,

# Reference: ChEMBL document CHEMBL1147563, “Solid-phase synthesis and SAR of 4-carboxy-2-azetidinone mechanism-based tryptase inhibitors” (Bioorg Med Chem Lett, 2004)
